Laboratory results from ChEMBL document CHEMBL1153200, “Discovery of 3,6-dihydro-2H-pyran as a morpholine replacement in 6-aryl-1H-pyrazolo[3,4-d]pyrimidines and 2-arylthieno[3,2-d]pyrimidines: ATP-competitive inhibitors of the mammalian target of rapamycin (mTOR)” (Bioorg Med Chem Lett, 2010).
pIC50: −log10 of the molar value.

How the values were obtained:
[1] = molecular target: Serine/threonine-protein kinase mTOR (Homo sapiens, UniProt P42345); test: Inhibition of mTOR in HEK293 cells by DELFIA assay; type: cell-based
[2] = molecular target: Phosphatidylinositol 4,5-bisphosphate 3-kinase catalytic subunit alpha isoform (Homo sapiens, UniProt P42336); test: Inhibition of PI3Kalpha by fluorescence polarization assay
[3] = Selectivity ratio, IC50 for PI3Kalpha to IC50 for human mTOR
LNCaP = test: Cytotoxicity against human LNCAP cells after 1 to 2 hrs by MTS assay; type: functional, cell-based
[4] = Half life in nude mouse microsomes; type: ADME, Microsome

Chain of Phosphatidylinositol 4,5-bisphosphate 3-kinase catalytic subunit alpha isoform (P42336 whole entry, canonical isoform): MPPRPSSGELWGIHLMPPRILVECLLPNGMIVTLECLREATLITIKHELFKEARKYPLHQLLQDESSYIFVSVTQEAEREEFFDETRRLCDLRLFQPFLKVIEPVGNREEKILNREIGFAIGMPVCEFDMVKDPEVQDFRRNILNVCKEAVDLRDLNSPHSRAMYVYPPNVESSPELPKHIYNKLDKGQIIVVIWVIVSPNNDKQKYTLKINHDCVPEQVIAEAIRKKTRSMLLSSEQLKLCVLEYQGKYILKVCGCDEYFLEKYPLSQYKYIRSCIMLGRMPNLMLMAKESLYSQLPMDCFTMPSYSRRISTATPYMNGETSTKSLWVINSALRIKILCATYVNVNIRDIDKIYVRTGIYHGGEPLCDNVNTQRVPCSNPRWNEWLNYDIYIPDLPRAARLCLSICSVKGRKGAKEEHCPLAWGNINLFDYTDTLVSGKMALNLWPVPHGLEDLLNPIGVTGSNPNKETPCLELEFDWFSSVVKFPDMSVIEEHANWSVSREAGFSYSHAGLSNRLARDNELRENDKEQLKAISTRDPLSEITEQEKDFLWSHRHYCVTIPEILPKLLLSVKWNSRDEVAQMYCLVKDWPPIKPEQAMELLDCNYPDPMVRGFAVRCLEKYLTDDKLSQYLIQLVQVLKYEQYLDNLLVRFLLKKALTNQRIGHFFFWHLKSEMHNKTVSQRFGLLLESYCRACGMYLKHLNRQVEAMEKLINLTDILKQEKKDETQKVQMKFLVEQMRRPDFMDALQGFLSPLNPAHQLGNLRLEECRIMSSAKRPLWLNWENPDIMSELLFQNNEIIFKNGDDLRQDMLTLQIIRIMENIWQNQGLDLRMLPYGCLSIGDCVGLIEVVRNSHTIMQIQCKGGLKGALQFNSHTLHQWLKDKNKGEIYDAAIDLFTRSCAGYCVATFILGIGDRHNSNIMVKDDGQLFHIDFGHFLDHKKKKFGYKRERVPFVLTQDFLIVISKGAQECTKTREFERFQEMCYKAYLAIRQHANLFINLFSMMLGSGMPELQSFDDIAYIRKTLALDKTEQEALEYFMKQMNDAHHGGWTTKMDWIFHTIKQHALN

Row | SMILES | pIC50 [1] | pIC50 [2] | Ratio IC50 [3] | half-life [4] | pIC50 ([1]; hek293) | pIC50 (LNCaP)
1 | Oc1cccc(-c2nc(C3CCOCC3)c3cnn(-c4ccccc4)c3n2)c1 | 6.30 | 5.99 | 2 | – | – | –
2 | CCNC(=O)Nc1ccc(-c2nc(C3=CCOCC3)c3sccc3n2)cc1 | 8.48 | 5.98 | 319 | 3 min | – | 6.33
3 | O=C(Nc1ccc(-c2nc(C3=CCOCC3)c3cnn(CC(F)(F)F)c3n2)cc1)Nc1cccnc1 | 9.00 | – | 66 | 25 min | – | 6.42
4 | O=C(Nc1ccc(-c2nc(N3CCOCC3)c3cnn(CC(F)(F)F)c3n2)cc1)Nc1cccnc1 | 9.70 | – | 50 | > 30 min | – | > 7.57
5 | O=C(Nc1ccccc1)Nc1ccc(-c2nc(C3=CCOCC3)c3sccc3n2)cc1 | 8.14 | 7.55 | 4 | 21 min | – | 6.10
6 | O=C(Nc1ccncc1)Nc1ccc(-c2nc(C3=CCOCC3)c3sccc3n2)cc1 | 8.74 | 7.57 | 15 | > 30 min | – | 6.70
7 | O=C(NCCF)Nc1ccc(-c2nc(N3CCOCC3)c3cnn(CC(F)(F)F)c3n2)cc1 | – | – | 525 | 22 min | 9.22 | 7.22
8 | CNC(=O)Nc1ccc(-c2nc(N3CCOCC3)c3cnn(CC(F)(F)F)c3n2)cc1 | – | – | 194 | 26 min | 9.00 | 6.64
9 | O=C(NCCF)Nc1ccc(-c2nc(C3=CCOCC3)c3cnn(CC(F)(F)F)c3n2)cc1 | 9.00 | – | 2300 | > 30 min | – | 7.14

More lines, main results first:

Row | pIC50 [1] | pIC50 [2] | Ratio IC50 [3] | half-life [4] | pIC50 ([1]; hek293) | SMILES | pIC50 (LNCaP)
10 | 8.70 | 6.70 | 100 | 13 min | – | CNC(=O)Nc1ccc(-c2nc(C3=CCOCC3)c3cnn(CC(F)(F)F)c3n2)cc1 | 6.59
11 | 8.96 | 7.46 | 32 | > 30 min | – | O=C(Nc1ccc(-c2nc(C3=CCOCC3)c3sccc3n2)cc1)Nc1cccnc1 | 6.68
12 | 8.60 | 5.86 | 560 | 6 min | – | O=C(NCCF)Nc1ccc(-c2nc(C3=CCOCC3)c3sccc3n2)cc1 | 5.89
13 | 7.74 | 7.23 | 3.3 | – | – | Oc1cccc(-c2nc(C3=CCOCC3)c3cnn(-c4ccccc4)c3n2)c1 | –
